Assay results from PubChem BioAssay (NCI).
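Values below derive from 48-hour exposures of cells grown in 96-well plates, with endpoints linearly interpolated between the two concentrations bracketing the appropriate inhibition level. TGI marks complete inhibition of growth.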

Assays:
Assay in all cases: NCI tumour cell line growth inhibition, 48 h
[1] = system: HOP-92 NSCLC
[2] = system: 786-0 renal
[3] = system: SNB-19 CNS
[4] = system: HT29 colon
[5] = system: COLO 205 colon
[6] = system: NCI-H23 lung
[7] = system: MALME-3M melanoma
[8] = system: SW-620 colon
[9] = system: RXF 393 renal
[10] = system: DMS 273 small cell lung
[11] = system: OVCAR-3 ovarian
[12] = system: HOP-62 NSCLC
[13] = system: A549 NSCLC
[14] = system: OVCAR-5 ovarian
[15] = system: IGROV1 ovarian
[16] = system: SF-295 CNS
[17] = system: SF-539 CNS
[18] = system: HL-60(TB) leukemia
[19] = system: RPMI-8226 leukemia
[20] = system: XF 498 CNS
[21] = system: KM12 colon
[22] = system: A498 renal
[23] = system: EKVX NSCLC
[24] = system: ACHN renal
[25] = system: HCT-15 colon
[26] = system: UACC-62 melanoma
[27] = system: MOLT-4 leukemia
[28] = system: U251 CNS
[29] = system: SK-OV-3 ovarian
[30] = system: SN12C renal
[31] = system: SR leukemia
[32] = system: SF-268 CNS
[33] = system: DLD-1 colon
[34] = system: HCT-116 colon
[35] = system: OVCAR-8 ovarian
[36] = system: NCI-H226 lung
[37] = system: OVCAR-4 ovarian
[38] = system: SK-MEL-5 melanoma
[39] = system: UACC-257 melanoma
[40] = system: LOX IMVI melanoma
[41] = system: SNB-78 CNS
[42] = system: CAKI-1 renal
[43] = system: M19-MEL melanoma
[44] = system: NCI-H522 lung
[45] = system: K-562 leukemia
[46] = system: DMS 114 small cell lung
[47] = system: UO-31 renal
[48] = system: TK-10 renal
[49] = system: NCI-H460 lung
[50] = system: SK-MEL-2 melanoma
[51] = system: SK-MEL-28 melanoma
[52] = system: KM20L2 colon
[53] = system: CCRF-CEM leukemia
[54] = system: HCC-2998 colon
[55] = system: LXFL 529 NSCLC
[56] = system: HOP-18 NSCLC
[57] = system: M14 melanoma
[58] = system: SNB-75 CNS
[59] = system: RXF-631 renal

Which results are given for `C1CN(P2(N3CC3)=NP(N3CC3)(N3CC3)=NP(N3CC3)(N3CC3)=N2)CCO1` (configuration not stated)?
TGI [1]: > 100 µM; TGI [2]: > 100 µM; TGI [3]: > 100 µM; TGI [4]: > 100 µM; TGI [5]: > 100 µM; TGI [6]: > 100 µM; TGI [7]: > 100 µM; TGI [8]: > 100 µM; TGI [9]: > 100 µM; TGI [10]: > 100 µM; TGI [11]: > 100 µM; TGI [12]: > 83.4 µM; TGI [13]: > 100 µM; TGI [14]: > 100 µM; TGI [15]: > 100 µM; TGI [16]: > 100 µM; TGI [17]: > 100 µM; TGI [18]: > 100 µM; TGI [19]: > 100 µM; TGI [20]: > 100 µM; TGI [21]: > 100 µM; TGI [22]: > 100 µM; TGI [23]: > 100 µM; TGI [24]: > 100 µM; TGI [25]: > 100 µM; TGI [26]: > 100 µM; TGI [27]: > 100 µM; TGI [28]: > 100 µM; TGI [29]: > 100 µM; TGI [30]: > 100 µM; TGI [31]: > 47.4 µM; TGI [32]: > 100 µM; TGI [33]: > 100 µM; TGI [34]: > 100 µM; TGI [35]: > 100 µM; TGI [36]: > 100 µM; TGI [37]: > 100 µM; TGI [38]: > 100 µM; TGI [39]: > 100 µM; TGI [40]: > 100 µM; TGI [41]: > 100 µM; TGI [42]: > 100 µM; TGI [43]: > 100 µM; TGI [44]: > 100 µM; TGI [45]: > 100 µM; TGI [46]: > 100 µM; TGI [47]: > 100 µM; TGI [48]: > 100 µM; TGI [49]: > 100 µM; TGI [50]: > 100 µM; TGI [51]: > 100 µM; TGI [52]: > 100 µM; TGI [53]: > 100 µM; TGI [54]: > 100 µM; TGI [55]: > 100 µM; TGI [56]: > 100 µM; TGI [57]: > 100 µM; TGI [58]: > 100 µM

Which results are given for `COC(=O)[C@@H](C)[C@H]1CC[C@@](C)(CCC2=C(C)CC3C=C(C)CCC3C2(C)C)OO1` (some centres not stated)?
TGI [2]: 0.263 µM; TGI [3]: 3.16 µM; TGI [4]: 2.96 µM; TGI [5]: 4.38 µM; TGI [6]: 3.49 µM; TGI [7]: 3.96 µM; TGI [8]: 1.01 µM; TGI [9]: 2.84 µM; TGI [10]: 4.43 µM; TGI [11]: 3.42 µM; TGI [12]: 3.72 µM; TGI [13]: 3.12 µM; TGI [14]: 3.27 µM; TGI [15]: 3.06 µM; TGI [16]: 3.2 µM; TGI [17]: 3.27 µM; TGI [18]: 0.449 µM; TGI [19]: 5.98 µM; TGI [21]: 2.9 µM; TGI [22]: 3.19 µM; TGI [23]: 3.03 µM; TGI [24]: 2.87 µM; TGI [25]: 2.82 µM; TGI [26]: 3.86 µM; TGI [27]: 2.75 µM; TGI [28]: 2.73 µM; TGI [29]: 3.87 µM; TGI [30]: 2.36 µM; TGI [31]: 3.87 µM; TGI [32]: 3.76 µM; TGI [33]: 2.54 µM; TGI [34]: 3.81 µM; TGI [59]: 4.63 µM; TGI [35]: 4.09 µM; TGI [36]: 4.13 µM; TGI [37]: 3 µM; TGI [38]: 2.87 µM; TGI [39]: 7.61 µM; TGI [41]: 4.76 µM; TGI [42]: 2.71 µM; TGI [43]: 3.75 µM; TGI [44]: 0.331 µM; TGI [46]: 4.04 µM; TGI [47]: 2.76 µM; TGI [48]: 3.31 µM; TGI [49]: 3.57 µM; TGI [50]: 3.32 µM; TGI [51]: 3.22 µM; TGI [52]: 3.13 µM; TGI [53]: 0.39 µM; TGI [54]: 2.65 µM; TGI [55]: 2.2 µM; TGI [57]: 3.13 µM; TGI [58]: 2.94 µM
